Assay results reported in ChEMBL document CHEMBL5029142, “Stapled Wasp Venom-Derived Oncolytic Peptides with Side Chains Induce Rapid Membrane Lysis and Prolonged Immune Responses in Melanoma” (J Med Chem, 2021).
pIC50: −log10 of the molar value. The source made the active and inactive calls. The rule behind the calls is not given here. Starred links: 1 amine or outer side, 2 acyl side, 3 side chain; linkers in the order of their positions; H or OH if unused. Positions of bridges follow the written chain, without caps; N, C: chain ends. Non-standard residues stand in square brackets, D forms with d. Residues, ends and D or L forms follow the SMILES beside them. ξ: configuration not given here. ξαMeNle(6-ylidene) = CC(CCCC=[*:3])(N[*:1])C(=O)[*:2]; X1 = CC(C)C[C@@](CCCC=[*:3])(N[*:1])C(=O)[*:2]; X2 = NCCCC[C@@](CCCC=[*:3])(N[*:1])C(=O)[*:2]; Dip = N[C@H](C(=O)O)C(c1ccccc1)c1ccccc1; S5 = C=CCCC[C@](C)(N)C(=O)O

What was measured:
[1] = system: 4T1; experiment: Antiproliferative activity against triple-negative mouse 4T1 cells assessed as inhibition of cell growth measured after 24 hrs by Cell Counting Kit-8 assay; assay type: functional, cell-based; settings: 4T1, 24 h
[2] = system: B16-F10; experiment: Antiproliferative activity against mouse B16-F10 cells assessed as inhibition of cell growth measured after 24 hrs by Cell Counting Kit-8 assay; assay type: functional, cell-based; settings: B16-F10, 24 h
[3] = system: 4T1; experiment: Antitumor activity against mouse 4T1 cells implanted in BALB/c mouse assessed as necrosis at 1 mg, IT administered once daily for 3 consecutive days starting from day 2 post inoculation and measured on day 18 by hematoxylin-eosin staining based assay; assay type: functional, cell-based; settings: time 18.0 day
[4] = system: 4T1; experiment: (§1) Antitumor activity against mouse 4T1 cells implanted in […] mouse assessed as increase in infiltration of CD4 positive T lymphocytes in tumors at 1 mg, IT administered once daily for 3 consecutive days starting from day 2 post inoculation and measured after 7 days by histochemical staining based analysis; assay type: functional, cell-based; settings: time 7.0 day
[5] = system: 4T1; experiment: Induction of morphological changes in mouse 4T1 cells assessed as change in adhesion measured up to 10 mins by bright field 3D live-cell imaging analysis; assay type: functional, cell-based; settings: time min <=10
[6] = system: B16-F10; experiment: Antitumor activity against mouse B16-F10 cells implanted in C57 mouse assessed as induction of cell necrosis by measuring reduction in live cells at 1 mg, IT administered once daily for 3 consecutive days starting from day 5 post inoculation and measured after 10 to 14 days by hematoxylin-eosin staining based assay; assay type: functional; settings: time 10-14 day
[7] = Stability of the compound assessed as alpha chymotrypsin (unknown origin)-mediated proteolysis by measuring parent compound remaining at 1 mM measured up to 12 hrs by HPLC analysis; assay type: ADME; settings: human, read-out: Stability
[8] = system: 4T1; experiment: Antitumor immunity against mouse 4T1 cells implanted in […] mouse assessed as release of HMGB-1 at IC75 measured after 6 hrs by Hoechst 33342 staining based confocal microscopic analysis; assay type: functional, cell-based
[9] = Hemolytic activity in mouse RBC assessed as hemoglobin release at 20 to 80 uM incubated for 1 hr by absorbance based method; assay type: tissue-based; settings: erythrocyte, dose 20-80 µM
[10] = system: 4T1; experiment: Cytotoxicity against mouse 4T1 cells assessed as loss of membrane integrity by measuring increase in LDH release incubated for 24 hrs by LDH release assay; assay type: functional, cell-based
[11] = system: B16-F10; experiment: as §1, with “mouse B16-F10” for “mouse 4T1”, “of CD8” for “of CD4”, “T cells into” for “T lymphocytes in”, “day 5” for “day 2”, “after 10” for “after 7”; assay type: functional, cell-based; settings: time 10.0 day
[12] = Toxicity in B16-F10 tumor bearing C57 mouse assessed as change in body weight at 1 mg, IT administered once daily for 3 consecutive days starting from day 5 post inoculation; settings: in vivo, other, 72 h, time 3 day
[13] = system: B16-F10; experiment: Antitumor activity against mouse B16-F10 cells implanted in C57 mouse assessed as reduction in tumor growth at 1 mg, IT administered once daily for 3 consecutive days starting from day 5 post inoculation; assay type: functional, cell-based; settings: time 3.0 day
[14] = system: 4T1; experiment: Antitumor activity against mouse 4T1 cells implanted in BALB/c mouse assessed as inhibition of tumor progression at 1 mg, IT administered once daily for 3 consecutive days starting from day 2 post inoculation; assay type: functional, cell-based; settings: time 3.0 day
[15] = system: B16-F10; experiment: as §1, with “mouse B16-F10” for “mouse 4T1”, “T cells into” for “T lymphocytes in”, “day 5” for “day 2”, “after 10” for “after 7”; assay type: functional, cell-based; settings: time 10.0 day
[16] = Stability of the compound assessed as alpha chymotrypsin (unknown origin)-mediated proteolysis by measuring degradation half life at 1 mM measured up to 12 hrs by HPLC analysis; assay type: ADME; settings: human; for half-life at 1000 µM: alpha-chymotrypsin
[17] = system: B16-F10; experiment: Antitumor immunity against mouse B16-F10 cells implanted in C57 mouse assessed as surface translocation of calreticulin at IC75 measured after 6 hrs by DiR/Hoechst 33342 staining based confocal microscopic analysis; assay type: functional, cell-based
[18] = system: 4T1; experiment: as §1, with “CD8” for “CD4”; assay type: functional, cell-based; settings: time 7.0 day
[19] = Toxicity in 4T1 tumor bearing BALB/c mouse assessed as increase in body weight at 1 mg, IT administered once daily for 3 consecutive days starting from day 2 post inoculation; settings: in vivo, other, 72 h, time 3 day
[20] = system: 4T1; experiment: Cytotoxicity against mouse 4T1 cells assessed as disruption of cells by measuring increase in red fluorescence at 10 uM measured up to 3 hrs by calcein-AM and PI dual staining based live/dead cell viability assay; assay type: functional; settings: time hrs <=3
[21] = system: 4T1; experiment: Cytotoxicity against mouse 4T1 cells assessed as increase in extracellular ATP level at 50 uM measured up to 60 mins by luminometric method; assay type: functional, cell-based; settings: time min <=60
[22] = system: B16-F10; experiment: Antitumor immunity against mouse B16-F10 cells implanted in C57 mouse assessed as release of HMGB-1 at IC75 measured after 6 hrs by Hoechst 33342 staining based confocal microscopic analysis; assay type: functional, cell-based
[23] = system: 4T1; experiment: Antitumor immunity against mouse 4T1 cells implanted in […] mouse assessed as surface translocation of calreticulin at IC75 measured after 6 hrs by DiR/Hoechst 33342 staining based confocal microscopic analysis; assay type: functional, cell-based
[24] = system: 4T1; experiment: Antitumor activity against mouse 4T1 cells implanted in BALB/c mouse assessed as necrosis at 1 mg, IT administered once daily for 3 consecutive days starting from day 2 post inoculation and measured on day 7 by hematoxylin-eosin staining based assay; assay type: functional, cell-based; settings: time 7.0 day
[25] = system: 4T1; experiment: Induction of morphological changes in mouse 4T1 cells assessed as appearance of broken cell particles measured after 5 mins by bright field 3D live-cell imaging analysis; assay type: functional, cell-based
[26] = system: B16-F10; experiment: Antitumor immunity against mouse B16-F10 cells implanted in anti-CD8 positive antibody stimulated C57 mouse assessed as inhibition of tumor progression at 1 mg, IT administered once daily for 3 consecutive days starting from day 7 and measured after 40 days; assay type: functional, cell-based; settings: time 40.0 day
[27] = system: 4T1; experiment: Cytotoxicity against mouse 4T1 cells assessed as permeabilization in to cell membrane at 10 uM measured up to 3 hrs by calcein-AM and PI dual staining based live/dead cell viability assay; assay type: functional; settings: time hrs <=3, TDE = time-dependent effect
[28] = system: B16-F10; experiment: Antitumor immunity against mouse B16-F10 cells implanted in anti-CD8 positive antibody stimulated C57 mouse assessed as inhibition of tumor progression at 1 mg, IT administered once daily for 3 consecutive days starting from day 7 and measured after 20 days; assay type: functional, cell-based; settings: time 20.0 day
[29] = Hemolytic activity in mouse RBC assessed as hemoglobin release at 80 uM incubated for 1 hr by absorbance based method relative to control; assay type: ADME, tissue-based, Erythrocyte; settings: mouse red blood cells, read-out: Activity

Row | pIC50 [1] | pIC50 [2] | SMILES | Activity [3] | Activity [4] | Activity [6] | Activity [10] | Activity [11] | Activity [12] | Activity [13] | Activity [14] | Activity [15] | Activity [18] | Activity [19] | Activity [20] | Activity [24] | other results
1 | 4.51 | 4.18 | CC(C)C[C@H](NC(=O)CN)C(=O)N[C@@H](CC(C)C)C(=O)N[C@@H](CCCCN)C(=O)N[C@@H](CCCNC(=N)N)C(=O)N[C@@]1(C)CCC/C=C\CCC[C@@](C)(C(N)=O)NC(=O)[C@H](CC(C)C)NC(=O)[C@H]([C@@H](C)O)NC(=O)[C@H](CCCCN)NC1=O (H-GLLKR[S5]KTL[S5]-NH2; staple (Z) 6-10) |  |  |  |  |  |  |  |  |  |  |  |  |  | 
2 | 5.29 | 4.80 | CC[C@H](C)[C@@H]1NC(=O)[C@@](C)(NC(=O)[C@H](CCCCN)NC(=O)[C@H](CC(C)C)NC(=O)[C@H](CC(C)C)NC(=O)CN)CCC/C=C\CCC[C@@](C)(C(=O)N[C@@H](CC(C)C)C(N)=O)NC(=O)[C@H]([C@@H](C)O)NC(=O)[C@H](CCCCN)NC1=O (H-GLLK[S5]IKT[S5]L-NH2; staple (Z) 5-9) |  |  |  |  |  |  |  |  |  |  |  |  |  | 
3 | 4.47 | 4.22 | CC[C@H](C)[C@@H]1NC(=O)[C@H](CCCNC(=N)N)NC(=O)[C@@](C)(NC(=O)[C@H](CC(C)C)NC(=O)[C@H](CC(C)C)NC(=O)CN)CCC/C=C\CCC[C@@](C)(C(=O)N[C@@H](CC(C)C)C(=O)N[C@@H](CC(C)C)C(N)=O)NC(=O)[C@H](CCCCN)NC1=O (H-GLL[S5]RIK[S5]LL-NH2; staple (Z) 4-8) |  |  |  |  |  |  |  |  |  |  |  |  |  | 
4 | 5.40 | 4.79 | CC[C@H](C)[C@@H]1NC(=O)[C@H](CCCNC(=N)N)NC(=O)[C@H](CCCCN)NC(=O)[C@@](C)(NC(=O)[C@H](CC(C)C)NC(=O)CN)CCC/C=C\CCC[C@@](C)(C(=O)N[C@H](C(=O)N[C@@H](CC(C)C)C(=O)N[C@@H](CC(C)C)C(N)=O)[C@@H](C)O)NC1=O (H-GL[S5]KRI[S5]TLL-NH2; staple (Z) 3-7) | inactive | inactive | Active | Dose-Dependent Effect | Active | Non-Toxic | Active | inactive | Active | inactive | Non-Toxic | Active | Active | Activity [5]: Active; remaining at 12 h, 1000 µM [7]: > 60%; Activity [8]: Active; Activity [9]: Toxic; Stability ([16]; 12 h, 1000 µM): Stable; Activity [17]: Active; Activity [21]: Active; Activity [22]: Active; Activity [23]: Active; Activity [25]: Active
5 | 5.18 | 4.52 | CC[C@H](C)[C@@H]1NC(=O)[C@H](CCCNC(=N)N)NC(=O)[C@H](CCCCN)NC(=O)[C@@](CC(C)C)(NC(=O)[C@H](CC(C)C)NC(=O)CN)CCC/C=C\CCC[C@@](CCCCN)(C(=O)N[C@H](C(=O)N[C@@H](CC(C)C)C(=O)N[C@@H](CC(C)C)C(N)=O)[C@@H](C)O)NC1=O (H-GL[X1]KRI[X2]TLL-NH2; staple (Z) 3-7) | inactive | inactive | Active |  | Active | Non-Toxic | Active | inactive | Active | inactive | Non-Toxic |  | Active | Activity [26]: inactive; Activity [27]: Tde; Activity [28]: inactive; hemolysis at 1 h, 80 µM [29]: < 10%
6 | 5.29 | 4.82 | CC[C@H](C)[C@H](NC(=O)[C@]1(C)CCC/C=C\CCCC(C)(N)C(=O)N[C@@H](CC(C)C)C(=O)N[C@@H](CC(C)C)C(=O)N[C@@H](CCCCN)C(=O)N1)C(=O)N[C@@H](CCCCN)C(=O)N[C@H](C(=O)N[C@@H](CC(C)C)C(=O)N[C@@H](CC(C)C)C(N)=O)[C@@H](C)O (stereo partly drawn) (H-[ξαMeNle(6-ylidene)]LLK[S5]IKTLL-NH2; staple (Z) 1-5) |  |  |  |  |  |  |  |  |  |  |  |  |  | Activity [9]: Toxic
7 | 3.72 | < 3.40 | CC[C@H](C)[C@H](NC(=O)[C@H](CCCNC(=N)N)NC(=O)[C@H](CCCCN)NC(=O)[C@H](CC(C)C)NC(=O)[C@H](CC(C)C)NC(=O)CN)C(=O)N[C@@H](CCCCN)C(=O)N[C@H](C(=O)N[C@@H](CC(C)C)C(=O)N[C@@H](CC(C)C)C(N)=O)[C@@H](C)O [ANOPLIN] (H-GLLKRIKTLL-NH2) |  | inactive |  | Dose-Dependent Effect | Active | Non-Toxic | inactive |  | Active | inactive | Non-Toxic | inactive |  | half-life at 1000 µM [16]: 12 min
8 |  |  | NCCCC[C@H](NC(=O)[C@@H](NC(=O)[C@H](Cc1c[nH]c2ccccc12)NC(=O)[C@H](CCCCN)NC(=O)[C@H](CCCCN)NC(=O)[C@H](Cc1c[nH]c2ccccc12)NC(=O)[C@H](Cc1c[nH]c2ccccc12)NC(=O)[C@H](CCCCN)NC(=O)[C@@H](N)CCCCN)C(c1ccccc1)c1ccccc1)C(N)=O [RUXOTEMITIDE] (H-KKWWKKW[Dip]K-NH2) | inactive | inactive | Active | Dose-Dependent Effect | Active | Non-Toxic | Active | inactive | Active | inactive | Non-Toxic | Active | Active | half-life at 1000 µM [16]: 34 min; Activity [21]: Active
